How the values were obtained:
[1] = tested on: SH-SY5Y human neuroblastoma cells; experiment: Neuroprotection against cell death induced by rotenone plus oligomycin-A (oxidative stress), LDH release; type: cell-based
Protocol: An oxidative stress model consists of blocking mitochondrial respiratory chain complexes I and V by means of the combination of rotenone plus oligomycin-A, respectively. As a result of the interruption of the mitochondrial respiratory chain, the cell is unable to continue producing ATP, and the free radicals are generated exceeding the capacity of the cell to neutralize them, and as a result, cell death occurs.
SH-SY5Y human neuroblastoma cells were cultured in a monolayer in 75 cm^2 flasks with a vented stopper. The culture medium used was Dulbecco's Modified Eagle's Medium (DMEM) with a high glucose content ([…]) and supplemented with 10% foetal bovine serum, 2 mM L-Glutamine, 50 IU/mL penicillin and 50 μg/mL streptomycin.
The cell cultures were maintained in an incubator at 37° C. in a humid environment, with 5% CO2 and 95% air. The culture medium was changed twice a week, performing 1:4 passages when the cells reached 70-80% confluence. To perform the passages, the cells were detached by means of their treatment with trypsin-EDTA.
For the cell viability assays, the cells were seeded in sterile 48-well plates at a density of 80,000 cells/well. The experiments were performed 24-48 hours after their seeding.
To evaluate the neuroprotective effect of the compounds, the SH-SY5Y cells were preincubated for 24 hours with the compound under study, and subsequently incubated for 24 hours with the compound under study in the presence of the toxic substances (a combination of 10 μM rotenone and 1 μM oligomycin-A); at the end of this period the cell viability was evaluated by quantifying the release of the LDH enzyme.
The assessment of this enzyme was performed by means of a commercial kit (Cytotoxicity detection kit-LDH; Roche) following the instructions of the company. The samples were colorimetrically analyzed in a plate reader (Labsystems iEMS Reader MF), using the suitable filter at 490-600 nm and obtaining the absorbance values.
The % of cell death was defined as the % of LDH released into the extracellular medium with respect to the total (sum of intra- and extracellular LDH).
Compounds Ic and Ib were studied at four concentrations (0.001, 0.003, 0.01 and 0.03 μM), chondroitin sulphate (supplied by Bioibérica, S.A.) was assayed at two concentrations (10 and 60 μM) and trolox (Sigma Aldrich) was assayed at two concentrations (30 and 300 μM). The experiment also included the baseline (SH-SY5Y cells in the absence of compound and of toxic stimulus) and the control (SH-SY5Y cells cultured in the absence of compound and in the presence of the toxic stimulus rotenone plus oligomycin).

rat hippocampal slices = experiment: Oxygen and glucose deprivation (15 minutes OGD, 2 hours reoxygenation) in hippocampal slices, MTT cell viability; type: cell-based
Protocol: Male Spague Dawley strain rats (250-325 g) were used. After anaesthesia by means of an intraperitoneal injection of 60 mg/Kg sodium pentobarbital (Euta-Lender®), they were decapitated with a guillotine and the brain was extracted after a craniotomy. The brain was immediately submersed in a dissection solution, a cold (4° C.) modified Krebs-Henseleit solution at pH 7.4, the composition of which is: 120 mM NaCl, 2 mM KCl, 0.5 mM CaCl2, 26 mM NaHCO3, 10 mM MgSO4, 1.18 mM KH2PO4, 11 mM glucose and 200 mM sucrose, bubbled with 95% O2-5% CO2. The hippocampi were isolated, embedded in 2% low melting point agarose (Sigma-Aldrich), and cut into 350 μm transverse slices in a vibratome (Leica VT1000S).
After the cutting in the vibratome, the slices were transferred to a vial with sucrose-free dissection Krebs solution, bubbled with 95% O2-5% CO2 for 60 minutes (equilibrium period).
After the equilibrating period, the medium was removed and an oxygenated solution (normal Krebs solution (120 mM NaCl, 2 mM KCl, 2 mM CaCl2, 26 mM NaHCO3, 1.19 mM MgSO4, 1.18 mM KH2PO4 and 11 mM glucose), bubbled with 5% CO2 and 95% O2 for 30 minutes (preincubation period), was introduced. The baseline slices were maintained in this oxygenated solution throughout the entire experiment. To induce OGD, the oxygenated solution was replaced with another one which lacked glucose and was bubbled with a mixture of gases of 5% CO2 and 95% N2 (anoxic solution). The slices were in a bath at 37° C. After inducing OGD, the anoxic medium was replaced with another one which contained the oxygenated solution (reoxygenation period).
To evaluate the effect of the compounds, they were incubated for the 30 minutes of the preincubation and throughout the OGD and during the reoxygenation. Two OGD-reoxygenation protocols were used: (i) 1 hour of OGD and 2 hours of reoxygenation and (ii) 15 minutes of OGD followed by 2 hours of reoxygenation.
When the OGD-reoxygenation protocol (ii): 15 minutes of OGD followed by 2 hours of reoxygenation was used, the slices were incubated with increasing concentrations of compound Ic (0.3 and 1 μM) or with increasing concentrations of compound Ib (1 and 3 μM). In the same study these two compounds of the invention were compared with N-acetylcysteine (NAC) at 10 mM. The baseline (slices in the absence of compound Ic or Ib and of OGD) and the control (slices in the absence of compound Ic or Ib and with OGD) were also included.
For the protocol of 15 minutes of OGD followed by 2 hours of reoxygenation, the cell viability was evaluated by means of the tetrazolium salt MTT, which is internalized in those cells which are viable and are therefore capable of reducing the tetrazolium to formazan which is an insoluble and coloured product which is deposited in the […]. To that end, after the experiment had ended, the hippocampal slices were incubated with MTT at a final concentration of 0.5 mg/mL in a Krebs-HEPES solution (in mM: NaCl, 144; KCl, 5.9; MgCl2, 1.2; CaCl2, 2; HEPES, 10; glucose, 11; at pH 7.3) at 37° C. After 3 hours, the medium was removed and the formazan precipitated in the solution was dissolved in dimethylsulfoxide. Then, the absorbance was measured in a plate reader (Labsystems iEMS Reader MF), at 500 nm. The data were represented taking the result of the baseline slices, i.e., those not subjected to OGD, as 100% viability.

[2] = tested on: mice (photothrombotic stroke model); experiment: Experimental photothrombotic stroke model, cortical infarction volume; type: in vivo, mouse; settings: 15 mg/kg i.p.
Description: Neuronal death occurs during brain ischemia or stroke; therefore a medicament with a neuroprotective profile can have a therapeutic potential in patients who have suffered from a cerebral infarction or stroke. To explore if the compounds of formula (I) can offer neuroprotection in vivo, the experimental photothrombotic stroke model was used. In the photothrombosis model a focal cerebral infarction is induced in the area of the cortex illuminated by means of a cold light source in mice previously treated with the Rose Bengal stain; this stain is photosensitive and produces free radicals when it is stimulated with light, causing lesions in the surrounding vascular endothelium, which causes platelet aggregation and the formation of thrombi in the microvessels of the cerebral cortex (Non-invasive induction of focal cerebral ischemia in mice by photothrombosis of cortical microvessels: characterization of inflammatory responses, M. Schroeter et al., J Neurosci Methods. 117(1), 43-49. (2002); Melatonin reduces infarction volume in a photothrombotic stroke model in the wild-type but not cyclooxygenase-1-gene knockout mice, L Y. Zhou et al., J Pineal Res. 41(2), 150-156. (2006)).
Adult male Swiss breed mice from Harlan laboratories (Barcelona), with a weight of about 30 g, were used. Once anaesthetised with isoflurane, the mice were placed in a stereotaxic frame, maintaining their rectal temperature at 37±0.5° C. during the entire procedure. Subsequently, the cranium was exposed by means of a dorsomedial incision in the skin and the periosteum was removed. By means of the use of a micromanipulator, a fibre-optic cable was placed to emit a beam of light of 1.9 mm in diameter and 3000° K, connected to a cold light source (Zeiss KL 1500), in 2.0 mm posterior and 3.0 mm lateral to Bregma on the right side. According to the mouse brain atlas (Franklin and Paxinos, 1986), the sensitive-motor cortex, the putamen caudate and the hippocampus are right below this stereotaxic position. Then, the mice were injected with 1 mg of the Rose Bengal photosensitive probe and the brain was illuminated through the intact cranium for 30 minutes. Finally, the skin was sutured and the animals were left in a cage until their recovery under observation.
The animals were sacrificed by decapitation 72 hours after the ischemia. […]
To quantify the cortical cerebral infarction volume, the sections stained with TTC were scanned on both their rostral and caudal part and by means of the image analysis programme ImageJ 1.41 (National Institutes of Health, Bethesda, Md., USA) the area of the ipsi-, contralateral cortex and the cerebral infarction of each of the sections scanned, both in the caudal and rostral part, was quantified. Subsequently, the cerebral infarction volume was calculated. […]

[3] = tested on: SH-SY5Y human neuroblastoma cell line; experiment: Cell toxicity study, LDH release, SH-SY5Y cells incubated 48 hours; type: cell-based; settings: 100 μM, 48 hours incubation
Protocol: The cell toxicity studies were performed on the SH-SY5Y human neuroblastoma cell line, incubating said cells for 48 hours with the compound under study. The cell viability was assessed by quantifying the release of lactate dehydrogenase (LDH), which is a cytoplasmic enzyme which is released into the extracellular medium when the integrity of the cytoplasmic membrane is lost.

For `Cc1c(C)c2c(c(C)c1O)CCC(C)(C(=O)O)O2` (stereo not drawn) [trolox, reference compound], the “effect on cell death induced by rotenone and oligomycin” value ([1]; 30 and 300 μM) was “reduced cell death”.

With `CC(=O)N[C@@H](CS)C(=O)O` [N-acetylcysteine, reference compound] the viability at 10000 µM (rat hippocampal slices; Rattus norvegicus, 10 mM, 15 minutes OGD, 2 hours reoxygenation, baseline 100%, control 67%, read-out: maximum statistically significant protection (cell viability, MTT)) was 83%.

For `COc1ccc2[nH]cc(CCNC(C)=O)c2c1` [melatonin, reference compound], the cortical infarction volume ([2]; 72 hours after ischemia, saline 6.1±2.18%, mean and standard deviation) was 4.3±1.63% and the “protection (reduction of cortical infarction volume)” value ([2]; p<0.05 vs saline) was 29%.

With `CO[C@H]1OC(COS(=O)(=O)[O-])[C@@H](O)[C@H](O[C@@H]2OC(C(=O)[O-])[C@@H](O)[C@H](O)C2O)C1NC(C)=O.[Na+].[Na+]` (stereo partly drawn) [compound Ib] the “maximum statistically significant protection against cell death (% of released LDH) induced by rotenone and oligomycin” value ([1]; 0.03 μM, 24 h preincubation + 24 h with 10 μM rotenone and 1 μM oligomycin-A) was 40%, the “protective effect compared with chondroitin sulphate and trolox” value ([1]; Ic, Ib at 0.001-0.03 μM vs chondroitin sulphate 10 and 60 μM, trolox 30 and 300 μM) was “more effective than chondroitin sulphate and than trolox” and the “efficacy in comparison with N-acetylcysteine” value (rat hippocampal slices; Ic 0.3 and 1 μM, Ib 1 and 3 μM vs N-acetylcysteine 10 mM) was “higher efficacy”. For the same molecule, the viability at 3 µM (rat hippocampal slices; Rattus norvegicus, 3 μM, 15 minutes OGD, 2 hours reoxygenation, baseline 100%, control 67%, read-out: maximum statistically significant protection (cell viability, MTT)) was 85% and the “cell toxicity (release of LDH)” value [3] was “did not show toxicity”.
